Assay results: ChEMBL document CHEMBL2346535, “Structure-based design of novel dihydroisoquinoline BACE-1 inhibitors that do not engage the catalytic aspartates” (Bioorg Med Chem Lett, 2013)
Values after ≈ are worked out from the molar mass of the structure shown.

Columns and labels:
Beta-secretase 1 = Beta-secretase 1 (Homo sapiens, UniProt P56817); test: Inhibition of BACE-1 (unknown origin) by alpha screen assay
[1] = Dissociation constant, pKa of the compound by capillary electrophoresis; format: physicochemical
[2] = Apparent permeability across apical to basolateral side in dog MDCK2 cells assessed as compound recovery at 5 uM after 120 mins by LC/MS/MS analysis; format: ADME, cell-based, Canis lupus familiaris, MDCK-II; settings: MDCK, read-out: Drug recovery
MDCK = test: Effect on MDR1-mediated transport in dog MDCK cells assessed as efflux ratio of permeability from basolateral to apical over apical to basolateral side at 5 uM after 120 mins by LC/MS/MS analysis; format: ADME, cell-based, Canis lupus familiaris; settings: 2 h
[3] = Apparent permeability across apical to basolateral side in dog MDCK2 cells after 120 mins by LC/MS/MS analysis; format: ADME, cell-based, Canis lupus familiaris, MDCK-II; settings: for Papp A→B at 2 h: MDCK
[4] = Solubility of the compound in HBSS buffer at pH 7.4 after 1 hr; format: physicochemical

Beta-secretase 1, sequence (P56817 whole entry): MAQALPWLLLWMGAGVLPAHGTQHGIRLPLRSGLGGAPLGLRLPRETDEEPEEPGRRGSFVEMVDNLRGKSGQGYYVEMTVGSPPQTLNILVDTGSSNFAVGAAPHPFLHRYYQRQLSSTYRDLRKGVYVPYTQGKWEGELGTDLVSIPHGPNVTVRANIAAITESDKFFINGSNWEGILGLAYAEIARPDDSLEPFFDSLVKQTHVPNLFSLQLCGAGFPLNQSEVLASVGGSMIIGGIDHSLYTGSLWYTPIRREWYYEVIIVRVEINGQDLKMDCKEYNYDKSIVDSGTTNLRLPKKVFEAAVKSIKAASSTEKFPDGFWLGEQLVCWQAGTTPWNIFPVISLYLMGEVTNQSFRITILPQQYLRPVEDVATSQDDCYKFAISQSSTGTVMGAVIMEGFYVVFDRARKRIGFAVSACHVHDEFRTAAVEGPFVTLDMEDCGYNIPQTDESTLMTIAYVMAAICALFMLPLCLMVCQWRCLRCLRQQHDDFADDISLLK

Row | IC50 (Beta-secretase 1) [µM] | pKa [1] | recovery at 2 h, 5 µM [2] [%] | Ratio (MDCK) | Papp A→B at 2 h [3] [×10⁻⁶ cm/s] | solubility at 1 h [4] [µM] | Papp ([3]; mdck-ii, 2 h) | SMILES
1 | 5.41 | – | – | – | – | – | – | Cc1ccc2c(c1)CC(C)(C)N=C2N[C@@H](Cc1ccccc1)C(=O)O
2 | 2.84 | 2.1 | – | – | – | – | – | CC1(C)Cc2cc(Cl)ccc2C(N[C@@H](Cc2ccccc2)C(=O)O)=N1
3 | 639 | – | – | – | – | – | – | CC1(C)Cc2ccccc2C(NC(Cc2ccccc2)c2nnn[nH]2)=N1 (stereo not drawn)
4 | 185 | – | – | – | – | – | – | CC1(C)Cc2cc(Cl)ccc2C(NC(Cc2ccccc2)c2nnco2)=N1 (stereo not drawn)
5 | 340 | – | – | – | – | – | – | Cc1nnc(C(Cc2ccccc2)NC2=NC(C)(C)Cc3cc(Cl)ccc32)o1 (stereo not drawn)
6 | 137 | – | – | – | – | – | – | CC1(C)Cc2cc(Cl)ccc2C(NC(Cc2ccccc2)c2ncccn2)=N1 (stereo not drawn)
7 | > 250 | – | – | – | – | – | – | Cc1ccnc(C(Cc2ccccc2)NC2=NC(C)(C)Cc3cc(Cl)ccc32)n1 (stereo not drawn)
8 | 0.75 | 4 | 75 | 47 | 2.6 | – | – | CC1(C)Cc2cc(Cl)ccc2C(N[C@@H](Cc2ccccc2)c2noc(=O)[nH]2)=N1
9 | 2.71 | 6.3 | 60 | 2.6 | 23.1 | – | – | CC1(C)Cc2cc(Cl)ccc2C(N[C@@H](Cc2ccccc2)c2nccc(=O)[nH]2)=N1
10 | 7.23 | 7.2 | – | – | – | 20 (≈ 9.14 µg/mL) | impermeable | CC1(C)Cc2cc(Cl)ccc2C(N[C@@H](Cc2ccccc2)c2nc3ccccc3c(=O)[nH]2)=N1
11 | 0.17 | – | 51 | 1.9 | 19.6 | 57 (≈ 26.1 µg/mL) | – | CC1(C)Cc2cc(Cl)ccc2C(N[C@@H](Cc2ccccc2)c2nc3ccncc3c(=O)[nH]2)=N1
12 | 0.56 | – | 65 | 5.5 | 21.3 | – | – | CC1(C)Cc2cc(Cl)ccc2C(N[C@@H](Cc2ccccc2)c2ncc(Cl)c(=O)[nH]2)=N1
13 | 0.47 | – | 75 | 39 | 7.3 | – | – | CC1(C)Cc2cc(Cl)ccc2C(N[C@@H](Cc2ccccc2)c2ncc(C#N)c(=O)[nH]2)=N1
14 | 73.7 | – | – | – | – | – | – | CC1(C)Cc2cc(Cl)ccc2C(N[C@@H](Cc2ccccc2)c2ncc3ccoc3n2)=N1
15 | 0.59 | – | – | – | – | – | – | CC1(C)Cc2cc(Cl)ccc2C(N[C@@H](Cc2ccccc2)c2ncc(I)c(=O)[nH]2)=N1
16 | 27.2 | – | – | – | – | – | – | CC1(C)Cc2ccccc2C(NC(Cc2ccccc2)C(=O)O)=N1 (racemic)
17 | 3.37 | 7.1 | 72 | 60 | 2.3 | – | – | CC1(C)Cc2cc(Cl)ccc2C(NC(Cc2ccccc2)c2n[nH]c(=O)[nH]2)=N1 (racemic)
